Assay results reported in US20210330611A1, “THERAPY FOR NEUROLOGICAL DISEASES/DISORDERS” (priority 2020, published 2021).
Structures can show the parent of a compound that is named as a salt. Where two headings read alike, the source gives them in different places.

How the values were obtained:
primary rat microglia [1] = tested on: primary rat microglia;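 on Fibrin % cell toxicity: share of dead cells sized under 150 µm2 at 10 µM in fibrin-stimulated microglia HTS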
[2] = tested on: fibrin- and LPS-induced microglia activation; assay: cells; format: cell-based, rat
[3] = tested on: fibrin-induced microglia activation; assay: Image-based assay of fibrin-induced microglia activation (HTS and dose response); format: cell-based, rat; details: for inhibition at 10 µM: Rattus norvegicus, Microglia, read-out: Fibrin % inhibition
primary rat microglia [4] = tested on: primary rat microglia; remark: listed apart in the source;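 on Fibrin % cell toxicity: share of dead cells sized under 150 µm2 at 10 µM in fibrin-stimulated microglia HTS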
[5] = tested on: LPS-induced microglia activation; assay: Image-based assay of LPS-induced microglia activation (HTS and dose response); format: cell-based, rat; details: for inhibition at 10 µM: Rattus norvegicus, Microglia, read-out: LPS % inhibition
[6] = HTS of 1907 compounds, quadrant by fibrin and LPS inhibition
[7] = primary microglia HTS, 10 μM, fibrin-stimulated, cell size >800 μm^2 as marker of activation
[8] = primary microglia HTS, 10 μM, LPS-stimulated, cell size >800 μm^2 as marker of activation
[9] = quadrant by fibrin and LPS inhibition, HTS at 10 μM
[10] = primary microglia HTS, fibrin stimulation, compounds at 10 μM
[11] = primary microglia HTS, LPS stimulation, compounds at 10 μM

| SMILES | Fibrin % cell toxicity (primary rat microglia [1]; rat) | Quadrant (FIG. 5b) [2, 6] | inhibition at 10 µM [3, 7] | LPS % cell toxicity (primary rat microglia [4]; rat) | inhibition at 10 µM [5, 8] | Quadrant (FIG. 5b) [2] | inhibition at 10 µM [3] | inhibition at 10 µM [5] | further results |
| --- | --- | --- | --- | --- | --- | --- | --- | --- | --- |
| CC1=C(CC(=O)O)c2cc(F)ccc2/C1=C\c1ccc([S+](C)[O-])cc1 (centres unmarked) [Sulindac] | 1% | Q4 | 21% | 0% | 6% | – | – | – | – |
| CCN(CC)CCNC(=O)c1c(C)[nH]c(/C=C2\C(=O)Nc3ccc(F)cc32)c1C [Sunitinib] | 75% | – | – | 27% | – | – | – | – | Quadrant (FIG. 5b) [2, 9]: Q2; inhibition at 10 µM [3, 10]: 106%; inhibition at 10 µM [5, 11]: 101% |
| O=c1n(Cl)c(=O)n(Cl)c(=O)n1Cl [Symclosene] | 0% | Q4 | -13% | 0% | 11% | – | – | – | – |
| Nc1c2c(nc3ccccc13)CCCC2 [Tacrine] | 1% | – | – | 0% | – | Q4 | -2% | 5% | – |
| CC[C@@H](c1cccc(O)c1)[C@@H](C)CN(C)C [Tapentadol Hydrochloride] | 1% | Q4 | -12% | 0% | 12% | – | – | – | – |
| CC(=O)O[C@H]1C(=O)[C@@]2(C)[C@H]([C@H](OC(=O)c3ccccc3)[C@]3(O)C[C@H](OC(=O)[C@H](O)[C@@H](NC(=O)c4ccccc4)c4ccccc4)C(C)=C1C3(C)C)[C@]1(OC(C)=O)CO[C@@H]1C[C@@H]2O [Taxol, Paclitaxel] | – | Q4 | – | – | – | – | – | – | Fibrin % cell toxicity (primary rat microglia [1]): 1%; Fibrin % inhibition [3, 7]: 45%; LPS % cell toxicity (primary rat microglia [4]): 1%; LPS % inhibition [5, 8]: 19% |
| CC[C@H]1OC(=O)[C@H](C)C(=O)[C@H](C)[C@@H](O[C@@H]2O[C@H](C)C[C@H](N(C)C)[C@H]2O)[C@](C)(OC)C[C@@H](C)C(=O)[C@H](C)[C@H]2N(CCCCn3cnc(-c4cccnc4)c3)C(=O)O[C@]12C [Telithromycin] | 1% | Q4 | 0% | 0% | 17% | – | – | – | – |
| CN1C(C(=O)Nc2ccccn2)=C(O)c2sccc2S1(=O)=O [Tenoxicam] | 1% | – | – | 0% | – | Q4 | 11% | 15% | – |
| COc1cc2nc(N3CCN(C(=O)C4CCCO4)CC3)nc(N)c2cc1OC (centres unmarked) [Terazosin] | 1% | – | – | 0% | – | Q4 | -1% | 9% | – |
| CN(C)[C@@H]1C(O)=C(C(N)=O)C(=O)[C@@]2(O)C(O)=C3C(=O)c4c(O)cccc4[C@@](C)(O)[C@H]3C[C@@H]12 [Tetracycline] | 0% | – | – | 0% | – | Q4 | 7% | 19% | – |
| c1ccc(C2CN3CCSC3=N2)cc1 (centres unmarked) [Tetramizole Hydrochloride] | 8% | – | – | 5% | – | Q2 | 107% | 112% | – |
| O=C1CCC(N2C(=O)c3ccccc3C2=O)C(=O)N1 (centres unmarked) [Thalidomide] | 0% | Q4 | 8% | 1% | 23% | – | – | – | – |
| CCCC(C)C1(CC)C(=O)NC(=S)NC1=O (centres unmarked) [Thiopental] | 0% | – | – | 0% | – | Q4 | 3% | 13% | – |
| S=P(N1CC1)(N1CC1)N1CC1 [Thiotepa] | 1% | Q4 | -15% | 1% | 15% | – | – | – | – |
| CN1CCN(CC/C=C2/c3ccccc3Sc3ccc(S(=O)(=O)N(C)C)cc32)CC1 [Thiothixene] | 0% | Q4 | -4% | 0% | 37% | – | – | – | – |
| CN(C)C(=S)SSC(=S)N(C)C [Thiram] | 91% | – | – | 64% | – | – | – | – | Quadrant (FIG. 5b) [2, 9]: Q2; inhibition at 10 µM [3, 10]: 109%; inhibition at 10 µM [5, 11]: 126% |
| COc1ccc(CN(CCN(C)C)c2ncccn2)cc1 [Thonzylamine Hydrochloride] | 0% | Q4 | -21% | 0% | 6% | – | – | – | – |
| Cc1ccc(C(C)C)c(O)c1 [Thymol] | 1% | Q4 | 15% | 0% | 20% | – | – | – | – |
| Clc1ccc2nsnc2c1NC1=NCCN1 [Tizanidine] | 1% | – | – | 1% | – | Q4 | 2% | 2% | – |
| CCCCNC(=O)NS(=O)(=O)c1ccc(C)cc1 [Tolbutamide] | 1% | – | – | 0% | – | Q4 | 31% | 24% | – |
| Cc1ccc(C(=O)c2cc(O)c(O)c([N+](=O)[O-])c2)cc1 [Tolcapone] | 1% | Q4 | -43% | 0% | 9% | – | – | – | – |
| Cc1c(Cl)cccc1Nc1ccccc1C(=O)O [Tolfenamic Acid] | 1% | Q4 | 3% | 1% | 36% | – | – | – | – |
| Cc1ccc(C(=O)c2ccc(CC(=O)O)n2C)cc1 [Tolmetin] | 0% | Q4 | 48% | 0% | 28% | – | – | – | – |
| CC[C@@]1(O)C(=O)OCc2c1cc1n(c2=O)Cc2cc3c(CN(C)C)c(O)ccc3nc2-1 [Topotecan, Topotecan Hydrochloride] | – | – | – | – | – | – | – | – | Fibrin % cell toxicity (primary rat microglia [1]): 63%; Quadrant (FIG. 5b) [2, 9]: Q2; Fibrin % inhibition [3, 10]: 112%; LPS % cell toxicity (primary rat microglia [4]): 40%; LPS % inhibition [5, 11]: 112% |
| CN(C)CCOc1ccc(/C(=C(/CCCl)c2ccccc2)c2ccccc2)cc1 [Toremifene] | 1% | – | – | 0% | – | Q4 | 14% | 19% | – |
| CCOC(=O)[C@H](CCc1ccccc1)N[C@@H](C)C(=O)N1[C@H](C(=O)O)C[C@H]2CCCC[C@@H]21 [Trandolapril] | 1% | – | – | 0% | – | Q4 | -5% | 15% | – |
| NC[C@H]1CC[C@H](C(=O)O)CC1 [Tranexamic Acid] | 1% | – | – | 0% | – | Q4 | -4% | 13% | – |
| N[C@@H]1C[C@H]1c1ccccc1.N[C@H]1C[C@@H]1c1ccccc1.O=S(=O)(O)O [Tranylcypromine Sulfate] | – | – | – | – | – | Q4 | – | – | Fibrin % cell toxicity (primary rat microglia [1]): 0%; Fibrin % inhibition ([3]; 10 µM): 3%; LPS % cell toxicity (primary rat microglia [4]): 0%; LPS % inhibition ([5]; 10 µM): 17% |
